Assay results reported in patent US20150258096A1, “METHODS AND COMPOSITIONS FOR TREATMENT OF TH2-MEDIATED AND TH17-MEDIATED DISEASES” (THE REGENTS OF THE UNIVERSITY OF CALIFORNIA, priority 2012, published 2015).

Tests used:
WT CD11c^+ BM cells = assay: Co-culture of WT CD11c+ BM cells with OT-2 CD4+ T cells, IL-4 by ELISA (pro-Th2 phenotype); type: cell-based, mouse; conditions: H-89 10 μM; CE3F4 50 μM or 25 μM (method); 30 min at 37° C.; FIG. 9b
Procedure: Cytokine levels in the supernatant were determined using ELISA kits for IL-4, IL-5, IL-13, IL-10, IFNγ, TNFα and IL-17A (eBioscience, La Jolla, Calif.) following the manufacturers' instructions as published^17.
WT BM-derived CD11c^+ cells were cultured and then incubated with a PKA inhibitor (H-89, 10 μM), with or without pretreatment with pertussis toxin (PTX, 100 μg/ml, 18 h), or with EPAC inhibitor (CE3F4, 25 μM) for 30 min at 37° C., then washed and co-cultured with OT-2 T cells.

[1] = system: CCL2 expression in Gnas^ΔCD11c CD11c^+ BM cells; assay: CCL2 mRNA levels (qPCR) in CD11c+ BM cells; type: cell-based, mouse; conditions: Gnas^ΔCD11c CD11c+ BM cells incubated with 8-CPT-cAMP 50 μM; FIG. 9g
Procedure: Isolation of RNA was carried out using an RNeasy Mini Kit (QIAGEN, Valencia, Calif.) according to the manufacturer's instructions. The cDNA was synthesized using Superscript III First-Strand system (Invitrogen). Quantitative PCR analysis was performed as described previously^54. SYBR Green PCR Master Mix was used for real-time PCR (7300 system, Applied Biosystems). Samples were run in triplicate and normalized by a housekeeping gene (mouse GAPDH).

[2] = system: WT (B6) and Gnas^ΔCD11c recipient mice; assay: Adoptive transfer of OVA-loaded Gnas^ΔCD11c CD11c+ BM cells treated with or without 8-CPT-cAMP; type: in vivo, mouse; conditions: BM cells treated in vitro with 50 μM 8-CPT-cAMP before i.n. transfer, 2×10^5 cells/recipient
Procedure: FIG. 14: Adoptive transfer of CD11c^+ BM cells from Gnas^ΔCD11c mice induces a Th2 bias in vivo, a response that is inhibited by a cell-permeable cAMP analogue: (a) OVA-specific IL-4 response by OT-2 CD4^+ T cells co-cultured with cell-permeable cAMP (8-CPT-cAMP, 50 μM)-treated CD11c^+ BM cells, (b) Protocol of the adoptive transfer. OVA-loaded Gnas^ΔCD11c CD11c^+ BM cells were incubated in the absence and presence of 50 μM 8-CPT-cAMP (CPT) in vitro prior to i.n. transfer to WT (B6 mice) and Gnas^ΔCD11c recipients (2×10^5 cells/recipient), (c) IL-4 levels of anti-CD3/28 Ab-stimulated CD4^+ T cells (spleen) from WT or Gnas^ΔCD11c recipients (ELISA), (d) Serum levels of IgE and IgG1 from WT and Gnas^ΔCD11c mice that received Gnas^ΔCD11c CD11c^+ BM cells loaded with OVA with/without CPT, (e) Lung histology from WT and Gnas^ΔCD11c recipients (magnification ×100, scale bar: 100 μm) (Data are mean±s.e.m, n=3-4 in each group; * p<0.05, ** p<0.01, p<0.001).
Adoptive transfer of OVA-pulsed Gnas^ΔCD11c CD11c^+ BM cells into mice was performed as described previously^55. […] 1 day after the last OVA challenge, mice were sacrificed and assessed by lung histology, measurement of serum immunoglobulins and cytokine production.

[3] = system: Gnas^ΔCD11c CD11c^+ BM cells; assay: Co-culture of Gnas^ΔCD11c CD11c+ BM cells with OT-2 CD4+ T cells, IL-4 by ELISA (pro-Th2 phenotype); type: cell-based, mouse
Procedure: For the inhibition of Th2 response by cAMP, fl/fl or Gnas^ΔCD11c BM-derived CD11c^+ cells were cultured as above, then, incubated with 8-CPT-cAMP (50 μM) for 24 h, washed and then co-cultured with OT-2 T cells.

Wild-type B6 mice = assay: Immunization with OVA, alum and cAMP-elevating agent; OVA-specific IL-17 (ELISA); type: in vivo, mouse; conditions: i.p. twice two weeks apart, OVA 50 μg/mice with alum; colforsin 1 mg/kg, IBMX 5 mg/kg; spleen cells of day 28 incubated 3 days with OVA; FIG. 16
Procedure: FIG. 16 cAMP agents provoke IL-17 responses: Wild-type B6 mice were immunized intraperitoneally (i.p.) twice two weeks apart with OVA (50 μg/mice) with and without alum (20 mg/mice), and colforsin (CF; a cAMP elevating drug that is approved for human use in Japan, 1 mg/kg), IBMX (a PDE inhibitor, 5 mg/kg), or solvent only as a control; on day 28, single-cell suspensions were prepared from the spleens and incubated for 3 days with OVA (200 μg/mL) as we described earlier (16); IL-17 levels were then detected (ELISA); *p<0.05 and **p<0.01 compared with OVA/alum-immunized group, n=4/group.
Based on the data presented above, co-immunization with antigen and a cAMP-elevating agent can induce a Th17 response. To promote stimulation of the same DC with antigen and cAMP agent, both were adsorbed to alum, an adjuvant used in humans (22), and immunized C57BL/6 (B6) mice with the combination.

`CC1CCc2c(cc(Br)c(F)c2Br)N1C=O` (stereo not drawn) [CE3F4] was tested, and the “pro-Th2 phenotype of WT CD11c+ BM cells (IL-4 levels of co-cultured OT-2 CD4+ T cells)” value (WT CD11c^+ BM cells) was “but not with an EPAC inhibitor (CE3F4), promoted their pro-Th2 phenotype”.

With `Nc1ncnc2c1nc(Sc1ccc(Cl)cc1)n2[C@@H]1O[C@@H]2COP(=O)([O-])O[C@H]2[C@H]1O.[Na+]` [CPT, 8-(4-Chlorophenylthio) adenosine 3′,5′-cyclic monophosphate sodium salt] the “CCL2 expression (mRNA, qPCR)” value [1] was “decreased CCL2 expression”, the “development of Th2 bias in recipients (IL-4 of splenic CD4+ T cells, serum IgE)” value ([2]; FIG. 14c-d) was “inhibited development of Th2 bias” and the “airway inflammation in recipients (lung histology)” value ([2]; FIG. 14e) was “inhibited development of Th2 bias and airway inflammation”. The “IL-4 production by OT-2 CD4+ T cells co-cultured with treated Gnas^ΔCD11c BM cells” value ([3]; 8-CPT-cAMP 50 μM, 24 h, in vitro, FIG. 14a) was “abolished the subsequent IL-4 production”.

With `O=S(=O)(NCCNC/C=C/c1ccc(Br)cc1)c1cccc2cnccc12` [H-89] the “pro-Th2 phenotype of WT CD11c+ BM cells (IL-4 levels of co-cultured OT-2 CD4+ T cells)” value (WT CD11c^+ BM cells) was “promoted their pro-Th2 phenotype”.

In the case of `CC(C)Cn1c(=O)n(C)c(=O)c2[nH]cnc21` [IBMX, 3-isobutyl-1-methylxanthine], the “OVA-specific IL-17 response” value (Wild-type B6 mice) is reported as “provoked a robust OVA-specific IL-17 response”.

`O=P1(O)OCC2OC(n3cnc4c(Nc5ccccc5)ncnc43)C(O)C2O1` (stereo not drawn) [N6, Phenyladenosine-3′,5′-cyclic monophosphate] was tested, and the “pro-Th2 phenotype of Gnas^ΔCD11c CD11c+ BM cells (IL-4 levels of co-cultured OT-2 CD4+ T cells)” value ([3]; BM cells incubated with cAMP analogue 50 μM for 24 h, washed, co-cultured with OT-2 T cells, FIG. 9a) was “abolished the pro-Th2 phenotype”.

With `C=C[C@@]1(C)CC(=O)[C@]2(O)[C@@]3(C)[C@@H](O)CCC(C)(C)[C@@H]3[C@H](O)[C@H](OC(C)=O)[C@@]2(C)O1` [colforsin] the “OVA-specific IL-17 response” value (Wild-type B6 mice) was “provoked a robust OVA-specific IL-17 response”.
